“Also recorded” adds a separate entry of the source.
How the values were obtained:
Shank3 knockout mouse = conditions: Shank3 exon 4-9 deletion mouse; cited from earlier work
Shank3 knockout mice = conditions: placebo controlled, 12 weeks of treatment; cited from earlier work
[1] = tested on: induced pluripotent stem (IPS) cell lines derived from PMS patients; conditions: PMS patient-derived IPS cell lines; cited from earlier work
[2] = tested on: Shank3 knockout transgenic mouse model of Phelan McDermid Syndrome; assay: Behavioral testing battery overall (five days after single dose); format: in vivo, mice
Method: (§1) Shank3b^-/- homozygous mice with deletions of exons 13-16, initially obtained from the Jackson Laboratory, and wild type (WT) littermates were generated on a C57BL/6J background and repeatedly backcrossed onto a C57BL/6J background for more than eight generations. The resulting Shank3 knockout (KO) mice were housed in groups of the same genotype in a temperature and humidity controlled room with a 12-h light-dark cycle (lights on 7 am to 7 pm). Room temperature and humidity were recorded continuously in the holding room. Testing was conducted during the light phase. Food and water were available ad libitum. Testing was conducted on Shank3 knockout mice and their wild type littermates, with N = 10 mice per treatment group, tested at two months of age during behavioral experiments. Mice were housed in commercial plastic cages and experiments were conducted in line with the requirements of the UK Animals (Scientific Procedures) Act, 1986. All experiments were conducted with experimenters blind to genotype and drug treatment. Animals were allowed a minimum acclimatization period of one week prior to performing any experiment. Only healthy animals were used. No prophylactic or therapeutic treatment was to be administered during the acclimatization period.
AMO-01 from AMO Pharma Ltd was administered to mice as follows: • A. AMO-01 at a single dose of 30 mg/kg intraperitoneally in a vehicle of ethanol, PEG 400 and polysorbate 80 and 5% dextrose • B. Vehicle dosed intraperitoneally as 15 ml/kg Groups of N = 10 mice were treated 4 hours before testing on the first day of testing. Five days of testing were undertaken following the single intraperitoneal dose administered on Day 1.
The following groups were studied: • 1. Shank3b^-/- knockout mice + vehicle, N = 10 • 2. Shank3b^-/- knockout mice + AMO-01 30 mg/kg i.p., N = 10 • 3. Wild Type litter mates + vehicle, N = 10 • 4. Wild Type litter mates + AMO-01 30 mg/kg i.p., N = 10
The following tests were administered.

[3] = tested on: Shank3b KO transgenic model of PMS; assay: Marble burying test (species typical behaviors); format: in vivo, mice; conditions: single dose 30 mg/kg i.p.
Method: as §1, with “period. […]” for “period.”
Day 5: Activities of daily living / species typical behaviors as assessed by marble burying. […]

[4] = tested on: Shank3b KO transgenic model of PMS; assay: Audiogenic seizure threshold test; format: in vivo; conditions: Shank3b KO mice, single dose 30 mg/kg i.p., 124 db 60 s stimulus
Method: as §1, with “period. […]” for “period.”
Seizure threshold as assessed by audiogenic seizures was assessed in a separate cohort with N = 10 per group. […]

[5] = tested on: Shank3b KO transgenic model of PMS; assay: Beam walking test (sensory motor function); format: in vivo, mice; conditions: single dose 30 mg/kg i.p.
Method: as §1, with “period. […]” for “period.”
Day 4: Sensory motor function as assessed by beam walking tests. […]

[6] = tested on: person with a genetically confirmed diagnosis of Phelan McDermid Syndrome; assay: Visual Evoked Potentials in a Phelan McDermid Syndrome subject; format: in vivo; conditions: human PMS subject, 120 mg/m^2 i.v. over 6 hours
Method: (§2) The study drug was prepared from a sterile bulk formulation containing 32.8 mg/mL (3.15% w/w) of the active drug substance dissolved in sterile 0.9% saline solution to produce an isotonic final dosing formulation. Each drug product vial contained 70 mg of AMO-01 drug substance in 2.134 mL of formulation (plus 2% overage). This corresponded to a total drug content of 71.4 mg of active drug substance per 2.176 mL of formula. AMO-01 was administered as a single dose via intravenous infusions over a 6 hour period, with the total dose administered as 120 mg/m^2.
Seizure frequency and Visual Evoked Potentials (VEPs) were assessed alongside clinical measures. VEPs provide a noninvasive technique to evaluate the functional integrity of visual pathways in the brain from the retina to the visual cortex via the optic nerve/optic radiations. The VEP is recorded from the head’s surface, over the visual cortex, and is extracted from ongoing EEG through signal averaging. VEPs reflect the sum of excitatory and inhibitory postsynaptic potentials occurring on apical dendrites (Zemon et al., 1986) which modulate excitatory and inhibitory signals received by the pyramidal cells. The major positive and negative peaks and troughs in VEP waveforms reflect different cellular events. […]

[7] = tested on: Shank3b KO transgenic model of PMS; assay: Light dark box test (anxiety); format: in vivo, mice; conditions: single dose 30 mg/kg i.p., 4 hours before testing
Method: as §1, with “period. […]” for “period.”

[8] = tested on: person with a genetically confirmed diagnosis of Phelan McDermid Syndrome; assay: Clinical assessment of seizures and behavior in a Phelan McDermid Syndrome subject; format: in vivo; conditions: human PMS subject
Method: A person with a genetically confirmed diagnosis of Phelan McDermid Syndrome was administered AMO-01.
as §2
Seizure frequency and Visual Evoked Potentials (VEPs) were assessed alongside clinical measures. VEPs provide a noninvasive technique to evaluate the functional integrity of visual pathways in the brain from the retina to the visual cortex via the optic nerve/optic radiations. The VEP is recorded from the head’s surface, over the visual cortex, and is extracted from ongoing EEG through signal averaging. VEPs reflect the sum of excitatory and inhibitory postsynaptic potentials occurring on apical dendrites (Zemon et al., 1986) which modulate excitatory and inhibitory signals received by the pyramidal cells. The major positive and negative peaks and troughs in VEP waveforms reflect different cellular events. The contrast-reversing checkerboard stimulus used in this study produces a positive peak at approximately 60 ms (P0 or P60), reflecting activation of the primary visual cortex from the lateral geniculate nucleus. A negative peak at approximately 75 ms (N0 or N75) reflecting depolarization and glutamatergic postsynaptic activity spreading to the superficial layers of primary visual cortex, and a positive peak at approximately 100 ms (P1 or P100) reflecting superficial hyperpolarization and GABAergic activity (Zemon et al., 1980). VEPs have been used in clinical trials; for example, an antiepileptic drug (gabapentin; Conte et al., 2009) and an infant formula (O′Connor et al., 2009). Both received FDA approval based in part on positive findings from VEP studies. Data from ongoing clinical trials at Mount Sinai provide support for use of VEPs as a measure of treatment response. Assessments of clinical response were made before treatment, after six hours of treatment, and one week, two weeks and four weeks after treatment according to the schematic in FIG. 8.

[9] = tested on: Shank3b KO transgenic model of PMS; assay: Social recognition and response to social novelty test; format: in vivo, mice; conditions: single dose 30 mg/kg i.p.
Method: as §1, with “period. […]” for “period.”

[10] = tested on: Shank3b KO transgenic model of PMS; assay: Excessive self-grooming test (self-injurious behavior); format: in vivo, mice; conditions: single dose 30 mg/kg i.p.
Method: as §1, with “Only healthy animals were used. No prophylactic or therapeutic treatment was to be administered during the acclimatization period.” left out
Day 2: Excessive grooming leading to skin lesions. […] During this test, time spent grooming in all sequences: face-wiping, scratching/rubbing of head and ears, and full-body grooming was scored by an observer blind to genotype during the scoring.

[11] = Shank3 knockout mice, 30 mg/kg i.p. single dose

Molecule: IGF-1: insulin-like growth factor 1 (IGF-1)
- Phenotype / deficits of Shank3 knockout mouse (Shank3 knockout mouse): deficits in this model reversed; also recorded: rescue of the phenotype
- Social, repetitive and aberrant behaviors (Shank3 knockout mice): improvements in social, repetitive and aberrant behaviors
- Impaired post-synaptic AMPA and NMDA receptor responses / excitatory synapse deficits [1]: rescued

Molecule: CC(C)=CCC/C(C)=C/CC/C(C)=C/CN1C(=O)c2cccc(O)c2Nc2c(O)cc(O)cc21 [AMO-01, 10-farnesyl-4,6,8-trihydroxy-dibenzodiazepin-11-one]
- Deficits across anxiety, grooming, sociability, sensori-motor and species typical behaviour domains [2, 11]: reversed deficits in all of these domains
- Duration of rescue of the phenotype after a single dose [2, 11]: persisted for at least five days
- Effect across anxiety, grooming, sociability, sensori-motor function, species typical behaviours, cognition ([2]; Wild Type mice, 30 mg/kg i.p.): without effect
- Marble burying deficit ([3]; Shank3b-/- KO mice, Day 5): significantly reduced the deficit shown in Shank3b^-/- KO mice (p <0.0001). This reversal was complete
- Effect on marble burying behavior ([3]; Wild Type mice): no significant effect
- Audiogenic seizure threshold [4]: rescue of lowered audiogenic seizure threshold
- Beam walking deficit ([5]; Shank3b-/- KO mice, Day 4): significantly reduced the deficit shown in Shank3b^-/- mice (p <0.0001). This reversal was complete
- Effect on beam walking behavior ([5]; Wild Type mice): no significant effect
- Visual Evoked Potentials before vs six hours after infusion [6]: ameliorated by treatment
- Anxiety deficit in light dark box test ([7]; Shank3b-/- KO mice, Day 1): significantly reduced the deficit shown in Shank3b^-/- mice (p <0.0001) although this reversal was not complete
- Effect on light dark box anxiety behavior ([7]; Wild Type mice): no significant effect
- Recurrence of seizure events after infusion ([8]; 120 mg/m^2 i.v. over 6 hours): Approximately three weeks after the study drug infusion
- Social, behavioral and motor changes during seizure-free period ([8]; 120 mg/m^2 i.v. over 6 hours): became more social, more engaged (e.g. better eye contact), more cooperative, less restless, and their motor skills also improved
- Seizure occurrence after infusion ([8]; 120 mg/m^2 i.v. over 6 hours, baseline 3 to 4 seizures a week): seizures stopped altogether for the next two weeks
- Impending seizure episode at time of infusion ([8]; single i.v. infusion 120 mg/m^2 over 6 hours): appeared to completely abort the impending seizure episode
- Response to social novelty (time in interaction with familiar or novel mouse) ([9]; Shank3b KO mice, Day 3, 30 mg/kg): rescue of response to social novelty; also recorded: normalizes the differential response to social novelty
- Response to social novelty (time in interaction with familiar or novel mouse) ([9]; Wild Type mice): not affected by treatment
- Excessive self-grooming deficit ([10]; Shank3b-/- KO mice, Day 2): significantly reduced the deficit shown in Shank3b^-/- mice (p <0.0001). This reversal was complete
- Effect on self-grooming ([10]; Wild Type mice): no significant effect
